In brackets after ≈: the same amount, converted by molar mass.

These results are taken from patent US9556223B2, “Antimicrobial compounds” (priority 2008, dated 2017).

For assay [1], the system named is Staphylococcus epidermidis. Briefly: Susceptibility testing under planktonic growth condition (MIC). To be noted: E-test (rifampicin: broth microdilution).
For assay [2], the system named is Staphylococcus haemolyticus. The description is as above. Particulars: E-test (rifampicin: broth microdilution).
The test system of assay [3] is S. haemolyticus TUH 51-07 biofilm. Kind of assay: Biofilm imaging, LIVE/DEAD staining, confocal laser scanning microscopy. The format is cell-based. The method, then: One ml aliquots of MHIIB-diluted overnight culture was used to grow S. haemolyticus TUH 51-07 biofilm on plastic coverslides (Thermanox, cellculture treated on one side, NUNC) in 24-well dishes (Falcon 3047, Becton Dickinson, N.J., USA) for 24 h. The coverslides were then washed carefully with PBS, moved to a new plate and treated for 24 h with tetracycline 50 mg/L and 500 mg/L, vancomycin 50 mg/L and 500 mg/L, or Compound […] and 500 mg/L. The coverslides were washed again with […] and stained with a LIVE/DEAD kit (Invitrogen Molecular Probes, Eugene, Oreg., USA) following the manufacturer's instructions. This stain contains SYTO 9 (green fluorescent) and propidium iodide (PI; red fluorescent), both binding to DNA. When used alone, the SYTO 9 generally stains all bacteria in a population; both those with intact and those with damaged membranes. In contrast, PI penetrates only bacteria with damaged membranes, causing a reduction in the SYTO 9 stain green fluorescence when both dyes are present. We examined treated and untreated biofilms with a Leica TCS SP5 (Leica Microsystems Cms Gmbh, Mannheim, Germany) confocal laser scanning microscope (CLSM). Images were obtained using a 63×1.2 NA HCX PL APO water immersion lens. For detection of SYTO9 (green channel), we used the 488 nm line of the argon laser and a detection bandwidth of 495-515 nm. […]

A further assay has as its system Staphylococcus aureus. Kind of assay: Susceptibility testing under planktonic growth condition (MIC). Particulars: E-test (rifampicin: broth microdilution).
Assay [4] deals with Methicillin resistant Staphylococcus aureus (MRSA) strain ATCC 33591. It is filed as cell-based. The method, then: (§1) MIC determinations on Staphylococcus aureus, strain ATCC 25923, Methicillin resistant Staphylococcus aureus (MRSA) strain ATCC 33591 and Methicillin resistant Staphylococcus epidermidis (MRSE) strain ATCC 27626 were performed by Toslab AS using standard methods. Amsterdam, D. (1996) Susceptibility testing of antimicrobials in liquid media, in Antibiotics in Laboratory Medicine. 4th ed (Lorian, V., Ed.) pp 75-78, Williams and Wilkins Co; Baltimore.

Another assay deals with E. coli. The format is cell-based.
In the next assay the test system is C. albicans. It is filed as cell-based.
Another assay relates to S. pyogenes. It is filed as cell-based.
Another assay deals with P. aeruginosa. The format is cell-based.
For assay [5], the system named is Staphylococcus aureus, strain ATCC 25923. It is filed as cell-based. On the procedure:
as §1

The mark [6] stands for this setting: strain SE RP62A ATCC 35984, blood culture.
Where [7] appears, read: strain SE TUH 08-16, blood culture.
[8] abbreviates: strain SH TUH 51-07, blood culture.
The mark [9] stands for this setting: strain TUH 51-03, blood culture.

In the case of `CN(C)[C@@H]1C(=O)C(C(N)=O)=C(O)[C@@]2(O)C(=O)C3=C(O)c4c(O)cccc4[C@@](C)(O)[C@H]3C[C@@H]12` [TET, tetracycline], the MIC antibiotics was 0.5 µg/mL (≈ 1.13 µM) in [1] (setting [6]); 2 µg/mL (≈ 4.5 µM) in assay [1] (setting [7]); 0.5 µg/mL (≈ 1.13 µM) in assay [2] (setting [8]); 1 µg/mL (≈ 2.25 µM) in [2] (setting [9]); 0.5 µg/mL (≈ 1.13 µM) with Staphylococcus aureus (strain SA PIA 9, joint fluid); 0.5 µg/mL (≈ 1.13 µM) with Staphylococcus aureus (strain SA PIA90, joint fluid). Also, in assay [3] (24 h treatment at 500 mg/L), the “LIVE/DEAD staining of biofilm cells (green live, red dead)” value is reported as “a significant part of the cells are still green indicating live bacteria with intact cell membrane”.
For the compound `CN[C@H](CC(C)C)C(=O)N[C@H]1C(=O)N[C@@H](CC(N)=O)C(=O)N[C@H]2C(=O)N[C@H]3C(=O)N[C@H](C(=O)N[C@H](C(=O)O)c4cc(O)cc(O)c4-c4cc3ccc4O)[C@H](O)c3ccc(c(Cl)c3)Oc3cc2cc(c3O[C@@H]2O[C@H](CO)[C@@H](O)[C@H](O)[C@H]2O[C@H]2C[C@](C)(N)[C@H](O)[C@H](C)O2)Oc2ccc(cc2Cl)[C@H]1O` [VAN, vancomycin], the MIC antibiotics in assay [1] (setting [6]) was 4 µg/mL (≈ 2.76 µM); in [1] (setting [7]), 2 µg/mL (≈ 1.38 µM); in assay [2] (setting [8]) it was 2 µg/mL (≈ 1.38 µM); in [2] (setting [9]) it was 4 µg/mL (≈ 2.76 µM); with Staphylococcus aureus (strain SA PIA 9, joint fluid), 2 µg/mL (≈ 1.38 µM); in the assay with Staphylococcus aureus (strain SA PIA90, joint fluid), 2 µg/mL (≈ 1.38 µM). Further, the “LIVE/DEAD staining of biofilm cells (green live, red dead)” value in assay [3] (24 h treatment at 50 mg/L) was “predominantly green cells (live organisms)”.
`Cc1onc(-c2ccccc2)c1C(=O)N[C@@H]1C(=O)N2[C@@H]1SC(C)(C)[C@@H]2C(=O)O` [OXA, oxacillin]: the MIC antibiotics in assay [1] (setting [6]) was 8 µg/mL (≈ 19.9 µM); in assay [1] (setting [7]), 16 µg/mL (≈ 39.9 µM); in assay [2] (setting [8]), above 256 µg/mL; in assay [2] (setting [9]), above 256 µg/mL; against Staphylococcus aureus (strain SA PIA 9, joint fluid) it was 1 µg/mL (≈ 2.49 µM); in the assay with Staphylococcus aureus (strain SA PIA90, joint fluid), 1 µg/mL (≈ 2.49 µM).
For the compound `CC(=O)NC[C@H]1CN(c2ccc(N3CCOCC3)c(F)c2)C(=O)O1` [LZD, linezolid], the MIC antibiotics in assay [1] (setting [6]) was determined as 1 µg/mL (≈ 2.96 µM); in assay [1] (setting [7]) it was 2 µg/mL (≈ 5.93 µM); in [2] (setting [8]) it was 0.5 µg/mL (≈ 1.48 µM); in [2] (setting [9]), 0.5 µg/mL (≈ 1.48 µM); against Staphylococcus aureus (strain SA PIA 9, joint fluid) it was 2 µg/mL (≈ 5.93 µM); against Staphylococcus aureus (strain SA PIA90, joint fluid) it was 1 µg/mL (≈ 2.96 µM).
As for `CC(C)(C)c1cc(C(C)(C)C)c2[nH]c(C(C)(C)C)c(C[C@H](NC(=O)[C@@H](N)CCCNC(=N)N)C(=O)N[C@@H](CCCNC(=N)N)C(=O)NC3CCCC3)c2c1` [Compound 8], in assay [4], the “MIC MRSA” value is below 15 µg/mL.
On to gentamicin, for which the MIC antibiotics in [1] (setting [6]) worked out at 8 µg/mL; in [1] (setting [7]), 256 µg/mL; in assay [2] (setting [8]), 64 µg/mL; in [2] (setting [9]), 64 µg/mL; in the assay with Staphylococcus aureus (strain SA PIA 9, joint fluid), 1 µg/mL; with Staphylococcus aureus (strain SA PIA90, joint fluid), 0.5 µg/mL.
With `CCCCCCCCCCCCCCCCNC(=O)[C@H](CCCNC(=N)N)NC(=O)[C@H](Cc1c(C(C)(C)C)[nH]c2c(C(C)(C)C)cc(C(C)(C)C)cc12)NC(=O)[C@@H](N)CCCNC(=N)N` [Compound 5], in the assay with E. coli, the “MIC E. coli” value was above 100 µg/mL. Further, the “MIC C. albicans” value in the assay on C. albicans was above 100 µg/mL. Further, the “MIC S. pyogenes” value in the assay with S. pyogenes is 6 µg/mL (≈ 6.61 µM). Besides, in the assay with P. aeruginosa, the “MIC P. aeruginosa” value is above 100 µg/mL. In addition, the “MIC S. aureus” value in assay [5] came out at 5 µg/mL (≈ 5.5 µM).
For `CO[C@H]1/C=C/O[C@@]2(C)Oc3c(C)c(O)c4c(O)c(c(/C=N/N5CCN(C)CC5)c(O)c4c3C2=O)NC(=O)/C(C)=C\C=C\[C@H](C)[C@H](O)[C@@H](C)[C@@H](O)[C@@H](C)[C@H](OC(C)=O)[C@@H]1C` [RIF, rifampicin], the MIC antibiotics in [1] (setting [6]) was below 0.016 µg/mL; in assay [1] (setting [7]), 0.016 µg/mL (≈ 0.0194 µM); in [2] (setting [8]), 0.016 µg/mL (≈ 0.0194 µM); in assay [2] (setting [9]) it was below 0.016 µg/mL; in the assay on Staphylococcus aureus (strain SA PIA 9, joint fluid), below 0.016 µg/mL; against Staphylococcus aureus (strain SA PIA90, joint fluid), 0.016 µg/mL (≈ 0.0194 µM).
